Measured values reported in ChEMBL document CHEMBL2074206, “Uraemic toxins induce proximal tubular injury via organic anion transporter 1-mediated uptake” (Br J Pharmacol, 2002).

Molecular target: T1, Solute carrier family 22 member 6 (Homo sapiens, UniProt Q4U2R8)
T1 sequence (Q4U2R8 whole entry): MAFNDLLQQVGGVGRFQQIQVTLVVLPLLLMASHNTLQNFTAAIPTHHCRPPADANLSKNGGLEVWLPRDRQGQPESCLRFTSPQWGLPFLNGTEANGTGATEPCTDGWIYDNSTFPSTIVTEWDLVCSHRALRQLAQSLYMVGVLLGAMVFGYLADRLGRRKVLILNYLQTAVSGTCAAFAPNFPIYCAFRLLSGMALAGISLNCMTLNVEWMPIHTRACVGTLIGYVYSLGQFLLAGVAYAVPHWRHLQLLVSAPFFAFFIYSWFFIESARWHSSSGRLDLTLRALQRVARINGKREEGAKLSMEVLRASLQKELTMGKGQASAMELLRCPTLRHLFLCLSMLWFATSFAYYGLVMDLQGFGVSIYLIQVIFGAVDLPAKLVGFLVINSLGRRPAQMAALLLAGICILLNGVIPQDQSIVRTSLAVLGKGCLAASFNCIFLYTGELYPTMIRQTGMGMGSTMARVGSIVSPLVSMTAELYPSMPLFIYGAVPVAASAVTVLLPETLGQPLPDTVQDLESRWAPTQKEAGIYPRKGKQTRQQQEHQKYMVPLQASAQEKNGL
Assay: TP_TRANSPORTER: inhibition of PAH uptake in OAT1-expressing OK cells
Format: functional, cell-based

IC50: 25 µM
Structure (SMILES): O=C(O)CNC(=O)c1ccc(O)cc1
